# Test results as given in US20160250228A1 (Acerus Pharmaceuticals Corporation, priority 2011, published 2016).
# B1: SHBG (protein, UniProt P04278 30-402, looked up)
# Sex hormone-binding globulin: LRPVLPTQSAHDPPAVHLSNGPGQEPIAVMTFDLTKITKTSSSFEVRTWDPEGVIFYGDTNPKDDWFMLGLRDGRPEIQLHNHWAQLTVGAGPRLDDGRWHQVEVKMEGDSVLLEVDGEEVLRLRQVSGPLTSKRHPIMRIALGGLLFPASNLRLPLVPALDGCLRRDSWLDKQAEISASAPTSLRSCDVESNPGIFLPPGTQAEFNLRDIPQPHAEPWAFSLDLGLKQAAGSGHLLALGTPENPSWLSLHLQDQKVVLSSGSGPGLDLPLVLGLPLQLKLSMSRVVLSQGSKMKALALPPLGLAPLLNLWAKPQGRLFLGALPGEDSSTSFCLNGLWAQGQRLDVDQALNRSHEIWTHSCPQSPGNGTDASH
# Experiments:
# [1] = reported normal range, cited from earlier work; for Normal Range Max: maximum; for Normal Range Min: minimum
# [2] = Baseline (24-hour pre-dose) and normal ranges of endogenous analytes (free/total testosterone, DHT, estradiol, SHBG); settings: for Pooled Baseline Max / Pooled Baseline Min: baseline range observed, all cohorts pooled; for Pooled Baseline Max / Baseline Max, Dose Cohort 600 (μg) / Baseline Max, Dose Cohort 1200 (μg) / Baseline Max, Dose Cohort 1800 (μg): maximum; for Pooled Baseline Min / Baseline Min, Dose Cohort 600 (μg) / Baseline Min, Dose Cohort 1200 (μg) / Baseline Min, Dose Cohort 1800 (μg): minimum; for Baseline Max, Dose Cohort 600 (μg) / Baseline Min, Dose Cohort 600 (μg) / Baseline Max, Dose Cohort 1200 (μg) / Baseline Min, Dose Cohort 1200 (μg) / Baseline Max, Dose Cohort 1800 (μg) / Baseline Min, Dose Cohort 1800 (μg): baseline range; for Baseline Max, Dose Cohort 600 (μg) / Baseline Min, Dose Cohort 600 (μg): 600 μg dose cohort; for Baseline Max, Dose Cohort 1200 (μg) / Baseline Min, Dose Cohort 1200 (μg): 1200 μg dose cohort; for Baseline Max, Dose Cohort 1800 (μg) / Baseline Min, Dose Cohort 1800 (μg): 1800 μg dose cohort
# [3] = General properties of testosterone: stability; format: physicochemical; settings: in air
Molecule,Normal Range Max [1],Normal Range Min [1],Pooled Baseline Max [2],Pooled Baseline Min [2],"Baseline Max, Dose Cohort 600 (μg) [2]","Baseline Min, Dose Cohort 600 (μg) [2]","Baseline Max, Dose Cohort 1200 (μg) [2]","Baseline Min, Dose Cohort 1200 (μg) [2]","Baseline Max, Dose Cohort 1800 (μg) [2]","Baseline Min, Dose Cohort 1800 (μg) [2]",Stability [3]
C[C@]12CCC(=O)C[C@@H]1CC[C@@H]1[C@@H]2CC[C@]2(C)[C@@H](O)CC[C@@H]12 [Dihydrotestosterone],22.00 ng/dL,4.00 ng/dL,32.60 ng/dL,5.02 ng/dL,22.10 ng/dL,5.29 ng/dL,25.30 ng/dL,5.04 ng/dL,32.60 ng/dL,5.02 ng/dL,–
C[C@]12CC[C@@H]3c4ccc(O)cc4CC[C@H]3[C@@H]1CC[C@@H]2O [Estradiol],–,–,12.2 ng/dL,1.7 ng/dL,12.2 ng/dL,2.09 ng/dL,11.9 ng/dL,1.7 ng/dL,9.74 ng/dL,1.77 ng/dL,–
"C[C@]12CC[C@H]3[C@@H](CCC4=CC(=O)CC[C@@]43C)[C@@H]1CC[C@@H]2O [Testosterone, 17β-Hydroxyandrost-4-en-3-one]",–,–,–,–,–,–,–,–,–,–,"powder. It is odourless, and stable in air."
B1,114.00 nmol/L,18.00 nmol/L,137.00 nmol/L,15.30 nmol/L,102.00 nmol/L,15.30 nmol/L,86.70 nmol/L,16.00 nmol/L,137.00 nmol/L,25.20 nmol/L,–
